Source: ChEMBL document CHEMBL1201862, “PubChem BioAssay data set” (2004)
The source made the active and inactive calls.

Assays:
[1] = biological target: Cytochrome P450 2C9 (Homo sapiens, UniProt P11712)
[2] = biological target: T1, Leucine aminopeptidase (Plasmodium falciparum 3D7, UniProt Q8IL11); assay: P. falciparum M17LAP inhibitors, primary screen, biochemical, fluorogenic H-Leu-NHMec substrate, 1536-well (AID 1619); type: functional
T1 sequence (Q8IL11 whole entry): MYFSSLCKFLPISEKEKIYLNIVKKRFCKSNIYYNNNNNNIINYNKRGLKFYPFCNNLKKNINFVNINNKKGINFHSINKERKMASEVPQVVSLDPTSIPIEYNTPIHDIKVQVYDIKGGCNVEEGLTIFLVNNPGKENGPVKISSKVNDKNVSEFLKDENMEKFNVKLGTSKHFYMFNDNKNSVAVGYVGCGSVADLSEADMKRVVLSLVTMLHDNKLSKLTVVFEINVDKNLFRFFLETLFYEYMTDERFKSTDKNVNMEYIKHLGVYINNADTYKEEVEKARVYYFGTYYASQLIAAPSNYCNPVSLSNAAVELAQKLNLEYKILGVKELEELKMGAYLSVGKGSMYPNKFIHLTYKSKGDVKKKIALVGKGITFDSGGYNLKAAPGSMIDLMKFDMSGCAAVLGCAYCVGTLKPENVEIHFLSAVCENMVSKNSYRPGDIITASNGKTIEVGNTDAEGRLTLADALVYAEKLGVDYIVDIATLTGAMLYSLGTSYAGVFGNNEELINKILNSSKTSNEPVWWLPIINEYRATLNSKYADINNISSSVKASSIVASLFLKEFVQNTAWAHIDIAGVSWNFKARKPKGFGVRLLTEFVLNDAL

[3] = biological target: T2, Cytochrome P450 1A2 (Homo sapiens, UniProt P05177);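 also: PubChem cytochrome P450 panel assay, CYP1A2 panel member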
T2 sequence (P05177 whole entry): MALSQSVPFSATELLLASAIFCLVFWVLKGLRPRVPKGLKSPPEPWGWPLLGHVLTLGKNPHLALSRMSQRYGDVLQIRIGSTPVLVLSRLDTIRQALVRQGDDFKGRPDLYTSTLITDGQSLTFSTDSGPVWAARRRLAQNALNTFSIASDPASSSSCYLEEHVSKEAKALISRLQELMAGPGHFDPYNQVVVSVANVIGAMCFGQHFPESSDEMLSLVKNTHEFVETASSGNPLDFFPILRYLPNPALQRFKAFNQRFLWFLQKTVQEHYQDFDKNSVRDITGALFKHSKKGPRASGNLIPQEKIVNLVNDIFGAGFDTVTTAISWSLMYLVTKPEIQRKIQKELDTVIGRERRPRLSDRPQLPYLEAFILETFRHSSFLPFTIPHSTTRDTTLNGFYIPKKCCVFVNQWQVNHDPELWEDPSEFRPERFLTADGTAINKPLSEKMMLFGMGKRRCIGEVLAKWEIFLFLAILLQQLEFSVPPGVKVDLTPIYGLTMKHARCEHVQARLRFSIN

[4] = biological target: Cytochrome P450 2C19 (Homo sapiens, UniProt P33261); assay: Cytochrome panel assay with activity outcomes. Panel member name: p450-cyp2c19 Compounds with AC50 equal or less than 10 uM are considered active; type: functional; settings: read-out: AC50
Chain of Cytochrome P450 2C19 (P33261 whole entry): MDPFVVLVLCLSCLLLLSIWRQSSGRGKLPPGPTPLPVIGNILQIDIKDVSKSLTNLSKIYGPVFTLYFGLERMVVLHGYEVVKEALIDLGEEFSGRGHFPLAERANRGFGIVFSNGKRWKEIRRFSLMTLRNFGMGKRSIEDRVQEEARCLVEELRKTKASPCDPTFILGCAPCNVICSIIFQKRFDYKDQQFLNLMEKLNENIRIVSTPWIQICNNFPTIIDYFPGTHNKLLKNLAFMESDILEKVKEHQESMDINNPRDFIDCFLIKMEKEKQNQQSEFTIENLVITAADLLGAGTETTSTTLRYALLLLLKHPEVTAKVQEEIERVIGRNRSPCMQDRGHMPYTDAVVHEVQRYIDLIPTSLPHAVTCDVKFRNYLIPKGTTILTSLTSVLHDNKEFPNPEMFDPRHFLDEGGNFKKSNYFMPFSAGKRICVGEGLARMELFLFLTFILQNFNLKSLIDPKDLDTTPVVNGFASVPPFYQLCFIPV

[5] = viability of uninfected HEp-2 cells – cell-based, HTS, cytotoxicity control for RSV inhibitor project, dose response (AID 2410); type: functional; settings: human respiratory syncytial virus
[6] = cells
[7] = test system: Vero; assay: cells; type: functional, cell-based; settings: Chlorocebus sabaeus
[8] = HEK-293T viability loss after treatment – luminescence, T-cell screen hits, cytotoxicity control for TCR NF-kB inhibitor project, dose response (AID 489026); type: functional, cell-based;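 also: cells exposed to compound about 14 hours before the viability readout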
[9] = biological target: Heat shock protein HSP 90-alpha (Homo sapiens, UniProt P07900); type: functional, organism-based
[10] = test system: Vero; assay: cells; type: functional; settings: Chlorocebus sabaeus
[11] = Vero E6 cell cytotoxicity, dose response, cytotoxicity control for non-replicating M. tuberculosis project, secondary assay (AID 492998); type: functional, VeroE6; settings: Vero C1008
[12] = biological target: T3, Sentrin-specific protease 8 (Homo sapiens, UniProt Q96LD8); type: functional;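 also: luminescence read-out of SENP8 inhibition, dose-response confirmation following an ultra-high-throughput screen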
T3 sequence (Q96LD8 whole entry): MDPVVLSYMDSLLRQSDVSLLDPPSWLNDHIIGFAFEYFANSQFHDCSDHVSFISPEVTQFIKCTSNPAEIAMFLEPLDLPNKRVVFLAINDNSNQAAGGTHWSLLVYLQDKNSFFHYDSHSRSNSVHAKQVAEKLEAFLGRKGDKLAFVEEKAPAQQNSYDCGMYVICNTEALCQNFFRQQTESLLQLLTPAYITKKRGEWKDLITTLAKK

[13] = THP-1 cell cytotoxicity, dose response, cytotoxicity control for non-replicating M. tuberculosis project (AID 489025); type: functional
[14] = biological target: T4, Sentrin-specific protease 7 (Homo sapiens, UniProt Q9BQF6); type: functional;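 also: Luminescence-based dose-response confirmation of ultra-high-throughput screening hits, measuring inhibition of SENP7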
T4 sequence (Q9BQF6 whole entry): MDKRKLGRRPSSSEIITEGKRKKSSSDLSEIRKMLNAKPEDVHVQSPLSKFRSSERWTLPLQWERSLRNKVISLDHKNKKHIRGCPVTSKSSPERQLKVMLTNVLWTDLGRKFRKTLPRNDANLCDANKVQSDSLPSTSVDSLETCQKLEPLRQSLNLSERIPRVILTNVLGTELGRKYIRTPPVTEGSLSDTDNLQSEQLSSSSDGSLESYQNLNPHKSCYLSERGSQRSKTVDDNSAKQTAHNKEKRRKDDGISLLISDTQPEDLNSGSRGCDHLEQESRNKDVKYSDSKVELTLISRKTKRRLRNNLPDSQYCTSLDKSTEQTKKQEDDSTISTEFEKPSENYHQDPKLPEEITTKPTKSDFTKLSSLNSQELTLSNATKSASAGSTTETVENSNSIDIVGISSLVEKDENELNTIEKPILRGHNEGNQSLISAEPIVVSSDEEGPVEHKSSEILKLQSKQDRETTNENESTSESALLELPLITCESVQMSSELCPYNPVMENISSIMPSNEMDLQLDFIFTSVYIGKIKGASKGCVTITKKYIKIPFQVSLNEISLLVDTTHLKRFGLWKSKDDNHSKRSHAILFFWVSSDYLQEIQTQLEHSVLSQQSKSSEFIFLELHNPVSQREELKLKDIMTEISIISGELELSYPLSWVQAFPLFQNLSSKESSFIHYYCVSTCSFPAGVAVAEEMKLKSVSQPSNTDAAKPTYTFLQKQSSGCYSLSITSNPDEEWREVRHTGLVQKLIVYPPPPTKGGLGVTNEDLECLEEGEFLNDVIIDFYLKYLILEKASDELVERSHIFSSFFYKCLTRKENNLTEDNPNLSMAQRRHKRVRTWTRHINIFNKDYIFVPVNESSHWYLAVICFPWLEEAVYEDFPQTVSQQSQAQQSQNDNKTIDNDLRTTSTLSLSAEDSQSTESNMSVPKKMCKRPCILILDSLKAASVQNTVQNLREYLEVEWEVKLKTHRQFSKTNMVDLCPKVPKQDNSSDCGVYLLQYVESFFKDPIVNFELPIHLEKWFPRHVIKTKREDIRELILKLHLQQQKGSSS

[15] = biological target: T5, Caspase-3 (Homo sapiens, UniProt P42574); type: functional;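 also: Dose-response selectivity test against caspase-3 for candidate inhibitors of sentrin-specific proteases (SENPs)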
T5 sequence (P42574 whole entry): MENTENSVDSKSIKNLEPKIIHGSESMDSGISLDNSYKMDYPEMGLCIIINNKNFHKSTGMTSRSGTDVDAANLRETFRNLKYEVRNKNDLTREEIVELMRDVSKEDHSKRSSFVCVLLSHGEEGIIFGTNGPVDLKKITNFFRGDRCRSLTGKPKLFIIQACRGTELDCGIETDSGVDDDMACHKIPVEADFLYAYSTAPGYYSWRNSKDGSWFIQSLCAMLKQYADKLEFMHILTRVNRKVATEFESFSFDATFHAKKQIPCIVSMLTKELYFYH

[16] = test system: INS1; assay: INS-1E survival protection against cytokine death – cell-based, luminescence, retest, dose response (AID 449756); type: functional; settings: Rattus norvegicus;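 also: cell death triggered by IL-1 beta plus TNF-alpha plus IFN-gamma mixture; protective hits raise ATP signal compared with cytokine alone wells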
[17] = Luminescence Cell-Based Dose Retest to Confirm Inhibitors of Cancer Stem Cells. [Related pubchem assays (depositor defined):AID2717, AID2721]; type: functional; settings: Homo sapiens
[18] = cells; type: functional
[19] = biological target: T6, Sentrin-specific protease 6 (Homo sapiens, UniProt Q9GZR1); type: functional;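 also: Luminescence-based dose-response confirmatory assay of SENP6 inhibition, following up an ultra-high-throughput screen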
T6 sequence (Q9GZR1 whole entry): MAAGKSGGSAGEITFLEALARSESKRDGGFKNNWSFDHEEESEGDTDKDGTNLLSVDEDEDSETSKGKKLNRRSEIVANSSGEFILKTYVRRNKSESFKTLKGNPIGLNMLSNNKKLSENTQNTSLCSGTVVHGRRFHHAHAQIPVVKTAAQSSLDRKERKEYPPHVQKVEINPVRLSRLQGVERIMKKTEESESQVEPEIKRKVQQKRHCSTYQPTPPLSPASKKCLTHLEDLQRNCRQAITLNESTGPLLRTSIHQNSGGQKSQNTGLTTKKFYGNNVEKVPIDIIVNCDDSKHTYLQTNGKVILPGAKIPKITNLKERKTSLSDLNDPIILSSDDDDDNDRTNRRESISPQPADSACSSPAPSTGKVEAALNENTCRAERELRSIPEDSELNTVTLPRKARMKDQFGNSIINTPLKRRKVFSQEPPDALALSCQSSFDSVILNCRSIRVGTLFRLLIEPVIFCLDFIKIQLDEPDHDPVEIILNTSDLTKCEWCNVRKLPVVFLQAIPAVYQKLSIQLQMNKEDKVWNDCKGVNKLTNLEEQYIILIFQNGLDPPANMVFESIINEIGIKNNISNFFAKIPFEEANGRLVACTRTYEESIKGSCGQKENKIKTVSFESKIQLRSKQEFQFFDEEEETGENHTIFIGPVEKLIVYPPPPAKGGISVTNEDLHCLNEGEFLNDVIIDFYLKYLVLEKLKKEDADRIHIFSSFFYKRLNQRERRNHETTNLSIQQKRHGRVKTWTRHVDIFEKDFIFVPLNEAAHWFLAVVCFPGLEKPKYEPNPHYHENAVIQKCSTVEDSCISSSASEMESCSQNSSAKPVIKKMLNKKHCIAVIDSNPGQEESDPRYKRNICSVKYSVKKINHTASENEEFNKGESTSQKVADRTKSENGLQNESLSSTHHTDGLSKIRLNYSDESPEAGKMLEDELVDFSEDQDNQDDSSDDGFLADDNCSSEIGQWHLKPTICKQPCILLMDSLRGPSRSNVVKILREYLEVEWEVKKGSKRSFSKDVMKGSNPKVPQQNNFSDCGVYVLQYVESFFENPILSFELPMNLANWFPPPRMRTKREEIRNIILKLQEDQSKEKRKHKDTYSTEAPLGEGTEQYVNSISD

[20] = test system: Streptococcus sp. 'group A'; assay: Streptococcus pyogenes SK(-)GAS viability under kanamycin – luminescence, BacTiterGlo, confirmation, counter-screen for streptokinase expression inhibitor project, dose response (AID 1900); type: functional, organism-based
[21] = test system: Streptococcus; assay: GAS UMAA2166 growth inhibition – luminescence, BacTiterGlo, counter-screen for streptokinase expression inhibitor project, dose response (AID 1915); type: functional, organism-based;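 also: potency for reduction of bacterial viability or growth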
[22] = microbe, parasite or virus in culture; type: functional; settings: Mycobacterium tuberculosis
[23] = biological target: Alkaline phosphatase, placental type (Homo sapiens, UniProt P05187); assay: human placental alkaline phosphatase inhibition – biochemical, luminescence, confirmation (AID 1512); type: functional
Chain of Alkaline phosphatase, placental type (P05187 whole entry): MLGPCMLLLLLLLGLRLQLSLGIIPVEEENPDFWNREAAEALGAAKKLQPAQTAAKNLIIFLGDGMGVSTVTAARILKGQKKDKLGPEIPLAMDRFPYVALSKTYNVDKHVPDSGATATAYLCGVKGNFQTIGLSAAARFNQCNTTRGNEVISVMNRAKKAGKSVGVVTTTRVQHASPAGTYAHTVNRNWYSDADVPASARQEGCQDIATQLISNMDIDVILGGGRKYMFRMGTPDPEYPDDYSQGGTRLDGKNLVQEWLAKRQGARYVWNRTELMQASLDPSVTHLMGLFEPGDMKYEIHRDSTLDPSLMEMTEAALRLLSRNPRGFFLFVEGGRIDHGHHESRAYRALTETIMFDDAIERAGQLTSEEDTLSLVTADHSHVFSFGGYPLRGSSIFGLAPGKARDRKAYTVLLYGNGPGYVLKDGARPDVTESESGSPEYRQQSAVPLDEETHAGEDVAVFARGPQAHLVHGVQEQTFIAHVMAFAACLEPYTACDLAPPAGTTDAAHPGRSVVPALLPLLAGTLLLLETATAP

Chain of Cytochrome P450 2C9 (P11712 whole entry): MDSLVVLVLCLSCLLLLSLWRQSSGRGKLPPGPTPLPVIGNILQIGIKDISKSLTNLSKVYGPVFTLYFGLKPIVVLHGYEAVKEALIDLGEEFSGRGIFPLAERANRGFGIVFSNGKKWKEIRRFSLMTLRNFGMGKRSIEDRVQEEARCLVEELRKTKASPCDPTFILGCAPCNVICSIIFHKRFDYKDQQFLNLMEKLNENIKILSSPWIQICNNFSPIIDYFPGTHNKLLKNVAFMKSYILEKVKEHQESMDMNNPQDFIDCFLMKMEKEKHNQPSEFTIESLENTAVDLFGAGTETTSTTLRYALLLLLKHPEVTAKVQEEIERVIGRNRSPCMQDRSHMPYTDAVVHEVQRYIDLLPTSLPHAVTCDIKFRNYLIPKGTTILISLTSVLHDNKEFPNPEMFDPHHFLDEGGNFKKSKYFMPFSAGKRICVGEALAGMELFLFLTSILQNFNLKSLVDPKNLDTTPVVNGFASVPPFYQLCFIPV

In the case of `Cc1ccc(N(CC(N)=O)C2SC(=O)N(Cc3cccc(C(=O)O)c3)C2=O)cc1` (stereo not given), the AC50 [1] is reported as 12.6 µM (inconclusive), the IC50 [2] is reported as 40.7 µM (active) and the AC50 [3] is reported as 15.8 µM (inconclusive). The AC50 [4] was 20 µM (inconclusive).

In the case of `COc1ccccc1C1CCCN1Cc1nc(-c2ccc(C)s2)oc1C` (stereo not given), the CC50 [5] is reported as 20.2 µM (active), the IC50 [6] is reported as 33.3 µM (active) and the IC50 [7] is reported as 10.9 µM (active).

In the case of `Cc1cc(C(=O)COC(=O)c2ccc[nH]c2=O)c(C)n1CCc1ccc(F)cc1`, the IC50 [2] is reported as 18.2 µM (active).

In the case of `O=S(=O)(Nc1ccc(F)cc1Cl)c1ccc(-c2cnc(C3CC3)o2)cc1`, the IC50 [8] is reported as > 80 µM (inactive).

In the case of `Cc1cccc(NC(S)=NCC23C=CC(O2)C2C(=O)N(c4ccc(Cl)cc4)C(=O)C23)c1` (stereo not given), the AC50 [9] is reported as 15 µM (active).

For `CCOc1ccc(NC(=O)CSc2nnc(N)s2)c([N+](=O)[O-])c1`, the IC50 [2] was 2.52 µM (active).

In the case of `O=C(CCN1C(=O)/C(=C/c2ccc(F)cc2)SC1=S)NCCc1ccc(O)cc1`, the CC50 [10] is reported as 24.1 µM (active) and the IC50 [7] is reported as > 25 µM (active).

With `O=C(Nc1ccn(Cc2ccccc2F)n1)c1ccc(COc2ccc(Br)cc2)cc1` the IC50 [8] was > 80 µM (inactive).

In the case of `O=C1C=C(Nc2ccc(F)cc2)c2ccccc2C1=O`, the CC50 [11] is reported as 9.15 µM (active), the IC50 [12] is reported as 4.81 µM (active) and the CC50 [13] is reported as 19 µM (active). For the same molecule, the IC50 [14] was 9.46 µM (active), the IC50 [15] was 13.9 µM (active) and the AC50 [16] was 3.06 µM (active). The AC50 [17] was 3.19 µM (active), the IC50 [18] was 4.25 µM (active) and the IC50 [19] was 2.94 µM (active).

For `OC(Cn1cncn1)(c1ccc(F)cc1)c1ccc(Cl)cc1` (stereo not given), the AC50 [9] was < 0.195 µM (active).

For `CC(C)c1ccc(OCC(=O)NNC(=S)NC(=O)c2ccco2)c(Br)c1`, the EC50 [20] was < 0.06 µM (active), the EC50 [21] was 0.141 µM (active) and the CC50 [10] was > 25 µM (active). The IC50 [7] was > 25 µM (active).

For `CCOC(=O)C(CSCC(=O)c1ccc(Br)cc1)NC(=O)OC(C)(C)C` (stereo not given), the IC50 [2] was 62.2 µM (active).

In the case of `Cc1cc(/C=C/c2ccc3cc(N(C)C)ccc3[n+]2C)c(C)n1-c1ccccc1`, the CC50 [22] is reported as 2.28 µM (active) and the AC50 [9] is reported as 5.91 µM (active).

With `Cc1ccc(-n2ncc3c(NNC(=O)c4ccco4)ncnc32)c(C)c1` the IC50 [23] was > 100 µM (inactive).

With `CCCc1c(NC(=O)Nc2ccc(Cl)cc2Cl)cnn1-c1ccccc1` the CC50 [10] was > 25 µM (active) and the IC50 [7] was 17.9 µM (active).

For `CCCCCCCCCC(=O)N[C@@H]1c2cc(OC)c(OC)cc2C[C@H]1OCc1ccccc1`, the IC50 [7] was > 25 µM (active).
